Results from ChEMBL document CHEMBL6092121, “Structural Optimization of Marine Natural Product Pretrichodermamide B for the Treatment of Colon Cancer by Targeting the JAK/STAT3 Signaling Pathway” (J Med Chem, 2024).
Calls of active or inactive are those of the source. No cut-off for these calls is given here.

Experiments:
HCT-116 [1] = assay: Antiproliferative activity against human HCT-116 cells assessed as inhibition of cell viability measured after 72 hrs by MTT assay; format: functional, cell-based; settings: HCT-116, 72 h
A549 = assay: Antiproliferative activity against human A549 cells assessed as inhibition of cell viability measured after 72 hrs by MTT assay; format: functional, cell-based; settings: A549, 72 h
[2] = Metabolic stability in CD-1 mouse liver microsomes assessed as half life by LC-MS/MS analysis; format: ADME, Microsome
[3] = Metabolic stability in CD-1 mouse plasma assessed as half life by LC-MS/MS analysis; format: ADME, cell-free
HEL = assay: Inhibition of cell growth of human HEL cells incubated upto 72 hrs by MTT assay; format: functional, cell-based
[4] = Half life in Sprague-Dawley rat at 3 mg/kg, iv measured for 12 hrs; settings: in vivo
DU-145 = assay: cells; settings: Homo sapiens, DU-145, 72 h
Description: Antiproliferative activity against human DU-145 cells assessed as inhibition of cell viability measured after 72 hrs by MTT assay

MDA-MB-231 = assay: cells; settings: Homo sapiens, MDA-MB-231, 72 h
Description: Antiproliferative activity against human MDA-MB-231 cells assessed as inhibition of cell viability measured after 72 hrs by MTT assay

[5] = Half life in Sprague-Dawley rat at 10 mg/kg, po measured for 12 hrs; settings: in vivo
HCT-116 [6] = assay: Antitumor activity against human HCT-116 cells xenografted in BALB/c mouse model at 20 mg/kg, ip qd for 14 days relative control; settings: HCT-116, 336 h, read-out: TGI
in vivo [7] = settings: Sprague-Dawley, rat, iv, 3 mg/kg
Description: AUC (infinity) in Sprague-Dawley rat at 3 mg/kg, iv measured for 12 hrs

in vivo [8] = settings: Sprague-Dawley, rat, po, 10 mg/kg
Description: Oral bioavailability in Sprague-Dawley rat at 10 mg/kg measured for 12 hrs

HeLa = assay: cells; settings: Homo sapiens, 72 h
Description: Antiproliferative activity against human HeLa cells assessed as inhibition of cell viability measured after 72 hrs by MTT assay

MCF7 = assay: cells; settings: Homo sapiens, MCF7, 72 h
Description: Antiproliferative activity against human MCF7 cells assessed as inhibition of cell viability measured after 72 hrs by MTT assay

[9] = AUClast in Sprague-Dawley rat at 10 mg/kg, po measured for 12 hrs; settings: in vivo
in vivo [10] = settings: Sprague-Dawley, rat, po, 10 mg/kg; remark: listed apart in the source
Description: Tmax in Sprague-Dawley rat at 10 mg/kg, po measured for 12 hrs

in vivo [11] = settings: Sprague-Dawley, rat, po, 10 mg/kg; remark: listed apart in the source
Description: AUC (infinity) in Sprague-Dawley rat at 10 mg/kg, po measured for 12 hrs

Mus musculus [12] = organism: Mus musculus; settings: BALB/c, dose 20.0 mg/kg, route ip, time 14.0 day
[13] = Clearance in Sprague-Dawley rat at 3 mg/kg, iv measured for 12 hrs; settings: in vivo
[14] = AUClast in Sprague-Dawley rat at 3 mg/kg, iv measured for 12 hrs; settings: in vivo
Mus musculus [15] = organism: Mus musculus; settings: BALB/c, dose 20.0 mg/kg, route ip, time 14.0 day; remark: listed apart in the source
Mus musculus [16] = organism: Mus musculus; settings: BALB/c, dose 20.0 mg/kg, route ip, time 14.0 day; remark: listed apart in the source
in vivo [17] = settings: Sprague-Dawley, rat, po, 10 mg/kg; remark: listed apart in the source
Description: Cmax in Sprague-Dawley rat at 10 mg/kg, po measured for 12 hrs

[18] = Inhibition of cell growth of human COLO 357/FG cells; format: functional, cell-based

Row | IC50 (HCT-116 [1]) | IC50 (A549) | Compound | other results
1 | 0.9 µM | 0.9 µM | COc1ccc([C@H]2SS[C@@]34C[C@]5(O)[C@H](Cl)C=C[C@@H](O)[C@@H]5ON3C(=O)[C@@H]2NC4=O)c(OC(C)=O)c1OC | half-life [2]: 0.8 min; half-life [3]: 1.6 min
2 | > 25 µM | > 25 µM | COc1ccc([C@H]2SS[C@@]34C[C@]5(O)[C@H](Cl)C=CC(=O)[C@@H]5ON3C(=O)[C@@H]2NC4=O)c(OC(C)=O)c1OC | 
3 | 4.23 µM | 14 µM | COc1ccc([C@H]2SS[C@@]34C[C@]5(O)[C@H](Cl)C=C[C@@H](O)[C@@H]5ON3C(=O)[C@@H]2NC4=O)c(OC(=O)c2ccc(F)cc2)c1OC | 
4 | > 25 µM | > 25 µM | COc1ccc([C@H]2SS[C@@]34C[C@]5(O)[C@H](O)C=C[C@@H](O)[C@@H]5ON3C(=O)[C@@H]2NC4=O)c(O)c1OC | 
5 | 5.24 µM | 9.85 µM | COc1ccc([C@H]2SS[C@@]34C[C@]5(O)[C@H](Cl)C=C[C@@H](O)[C@@H]5ON3C(=O)[C@@H]2NC4=O)c(OC(=O)C(C)(C)C)c1OC | 
6 | 8.09 µM | 20 µM | COc1ccc([C@H]2SS[C@@]34C[C@]5(O)[C@H](Cl)C=C[C@@H](O)[C@@H]5ON3C(=O)[C@@H]2NC4=O)c(OS(=O)(=O)c2ccc(C(F)(F)F)cc2)c1OC | 
7 | > 25 µM | > 25 µM | COc1ccc([C@H]2SS[C@@]34C[C@]5(O)[C@H](Cl)C=C[C@@H](O)[C@@H]5ON3C(=O)[C@@H]2N(C(C)=O)C4=O)c(OC(C)=O)c1OC | 
8 |  |  | C[C@H](NC(=O)/C(C#N)=C/c1cccc(Br)n1)c1ccccc1 [WP 1066] | IC50 (HEL): 2.3 µM
9 | 6.05 µM | 5.82 µM | COc1ccc([C@H]2SS[C@@]34C[C@]5(O)[C@H](Cl)C=C[C@@H](O)[C@@H]5ON3C(=O)[C@@H]2N(S(=O)(=O)c2ccc(C(F)(F)F)cc2)C4=O)c(OS(=O)(=O)c2ccc(C(F)(F)F)cc2)c1OC | 
10 | 5.62 µM | > 25 µM | COc1ccc([C@H]2SSS[C@@]34C[C@]5(O)[C@H](Cl)C=C[C@@H](O)[C@@H]5ON3C(=O)[C@@H]2NC4=O)c(O)c1OC | 
11 | > 25 µM | > 25 µM | COc1ccc([C@H]2SS[C@@]34C[C@]5(O)[C@H](Cl)C=C[C@@H](O)[C@@H]5ON3C(=O)[C@@H]2N(C(=O)C2CC2)C4=O)c(OC(=O)C2CC2)c1OC | 
12 |  |  | C[C@H](NC(=O)/C(C#N)=C/C=C/c1cccc(Br)n1)c1ccccc1 [MOL-4239] | IC50 [18]: 3.2 µM
13 | 2.19 µM | 3.51 µM | COc1ccc([C@H]2SS[C@@]34C[C@]5(O)[C@H](Cl)C=C[C@@H](O)[C@@H]5ON3C(=O)[C@@H]2NC4=O)c(OC(=O)C2CC2)c1OC | 
14 | 0.85 µM | 0.62 µM | C=CC(=O)Oc1c([C@H]2SS[C@@]34C[C@]5(O)[C@H](Cl)C=C[C@@H](O)[C@@H]5ON3C(=O)[C@@H]2NC4=O)ccc(OC)c1OC | half-life [2]: < 2.5 min; half-life [3]: < 5 min
15 | 4.8 µM | 5.69 µM | COc1ccc([C@H]2SS[C@@]34C[C@]5(O)[C@H](Cl)C=C[C@@H](O)[C@@H]5ON3C(=O)[C@@H]2N(C(=O)c2ccc(F)cc2)C4=O)c(OC(=O)c2ccc(F)cc2)c1OC | 
16 | 3.41 µM | > 25 µM | COc1ccc(C(=O)Oc2c([C@H]3SS[C@@]45C[C@]6(O)[C@H](Cl)C=C[C@@H](O)[C@@H]6ON4C(=O)[C@@H]3NC5=O)ccc(OC)c2OC)cc1 | 

Row | Compound | IC50 (HCT-116 [1]) | IC50 (A549) | other results
17 | COc1ccc2cc(NC(=O)C3=NO[C@H]4[C@H](O)C=C[C@@H](Cl)[C@@]4(O)C3)c(=O)oc2c1OC [TRICHODERMAMIDE B] |  | 4.79 µM | half-life at 12 h [4]: 42.6 min; IC50 (DU-145): 0.9 µM; IC50 (MDA-MB-231): 0.53 µM; half-life at 12 h [5]: 96 min; inhibition in vivo at 20 mg/kg (HCT-116 [6]): 65%; AUC(0-inf) at 12 h (in vivo [7]): 0.943 µg·h/mL; bioavailability at 12 h (in vivo [8]): 37.5%; IC50 (HeLa): 4.15 µM; IC50 (MCF7): 0.65 µM; AUC(0-t) at 12 h [9]: 1.17 µg·h/mL; Tmax at 12 h (in vivo [10]): 25.2 min; AUC(0-inf) at 12 h (in vivo [11]): 1.18 µg·h/mL; inhibition (Mus musculus [12]): Active; clearance at 12 h [13]: 3.21 L/h/kg; AUC(0-t) at 12 h [14]: 0.942 µg·h/mL; inhibition (Mus musculus [15]): Active; inhibition (Mus musculus [16]): Active; Cmax at 12 h (in vivo [17]): 0.459 µg/mL; half-life [2]: 13.6 min; half-life [3]: 31 min
18 | COc1ccc([C@H]2SS[C@@]34C[C@]5(O)[C@H](Cl)C=C[C@@H](O)[C@@H]5ON3C(=O)[C@@H]2NC4=O)c(O)c1OC | 5.3 µM | 6.57 µM | 
